In experiment [1] the target is T1, recombinant human full-length CD99 (Homo sapiens, UniProt P14209).
T1 construct: Purified recombinant human full-length CD99 produced in HEK293 cells was purchased from Origene; purchased Origene #TP304056; host or cells: HEK293
T1 sequence (P14209 23-185): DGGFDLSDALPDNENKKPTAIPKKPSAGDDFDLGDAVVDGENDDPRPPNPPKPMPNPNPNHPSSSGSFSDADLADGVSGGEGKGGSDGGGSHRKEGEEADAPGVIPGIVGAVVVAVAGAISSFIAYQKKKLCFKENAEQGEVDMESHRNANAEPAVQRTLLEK
The experiment is described as follows: SPR binding kinetics, recombinant human full-length CD99 (Biacore T200). The conditions noted are these: full-length CD99 produced in HEK293 cells, immobilized by amine coupling. The procedure: The initial binding screening of the NCI/DTP chemical libraries was performed on a Biacore T200 instrument at room temperature using a neutravidin-coated CM5 chip (GE Healthcare Bio-Sciences) coupled with biotinylated CD99-ECD on one flow cell at levels of ˜3,000 response units (RU). A negative control protein, Ly6k was immobilized on another flow cell of the same chip (˜11,000 RU), and the first flow cell was left empty for reference subtraction due to nonspecific binding. Analytes were diluted in HBS—P buffer [10 mmol/L HEPES, pH 7.4, 150 mmol/L NaCl, % 0.05 (v/v) surfactant P20], and were injected individually over all flow cells. The running buffer contained appropriate concentrations of DMSO in HBS—P to match the DMSO level of the samples. Kinetic studies for antibody- or compound-CD99 interactions were performed in a Biacore T200 instrument. Purified recombinant human full-length CD99 produced in HEK293 cells was purchased from Origene (Rockville, Md.) (#TP304056). The recombinant human full-length CD99 was immobilized on a CM5 sensor chip by the amine-coupling method in sodium acetate buffer, pH 4.0 (˜10,000 RU). The first flow cell was left empty for background signal subtraction. Kinetic characterization of the interactions was done by injecting increasing concentrations of analytes as indicated over CD99-captured and control surface. KD (equilibrium dissociation constant) values were obtained using BiaEvaluation software (version 1.0) (Biacore) (GE Healthcare). All kinetic experiments were conducted in HBS—P buffer, which contained 1% (v/v) DMSO in case of compounds.

For experiment [2], the system named is TC-71 and RD-ES cell lines. The experiment is described as follows: Dose-dependent cytotoxicity assay in ES cell lines. Type of experiment: cell-based, human. Particulars: Homo sapiens; dose-response at 1, 3, 10 and 30 μmol/L in TC-71 and RD-ES. Here is the method:
(§1) The plate was installed into the RTCA system, and the electrical impedance (represented as cell index) was measured every 10 min.
The primary screen was based on a direct binding assay using surface plasmon resonance (SPR) technology with purified extracellular domain of CD99 (CD99-ECD) protein that was immobilized on a neutravidin-coated sensor chip. […] A negative control protein was used in order to eliminate non-specific binders. […] Dose-response studies were performed with 2 compounds at 1, 3, 10 and 30 μmol/L concentration in ES cell lines.

In experiment [3] the test system is ES cell lines. The experiment is described as follows: Cell viability IC50 panel (WST-1 or MTT), ES cell lines. Particulars: for IC50: Homo sapiens, 48 h, read-out: average IC50 concentration for ES cell lines; for IC50 concentrations, ES cell lines: all ES cell lines except A673; for increased sensitivity of ES compared to non-ES cell lines: ratio of average IC50 non-ES vs ES. The class given is cell-based, human. (In general: Formazan colour is commonly taken as a measure of viable cells.)

Experiment [4] relates to IOR/OS14 OS cells. The experiment is described as follows: Cell viability IC50, IOR/OS14. The class given is cell-based. The conditions noted are these: Homo sapiens. Here is the method: as §1
(§2) To investigate the relationship between the level of CD99 expression and drug sensitivity, the endogenous expression of CD99 was determined in a panel of 9 ES and 13 non-ES cell lines. The recombinant purified CD99-ECD protein was used to generate standard curves for immunoquantification of CD99 expression by immunoblotting (FIGS. 6B and 6C).

The test system of experiment [5] is IOR/OS20 OS cells. Put plainly: Cell viability IC50, IOR/OS20. Particulars: Homo sapiens. Type of experiment: cell-based. The procedure:
as §1, §2

The test system of experiment [6] is MG63 OS cells. Put plainly: Cell viability IC50, MG63. Type of experiment: cell-based. Particulars: Homo sapiens, MG-63. The procedure: as §1, §2
Experiment [7] relates to ROCK2 expression in RDES, 6647, IOR/CAR and TC-71 ES cells. Put plainly: ROCK2 expression by immunoblot in ES cells. Type of experiment: cell-based, human. Particulars: 24 h, vs DMSO-treated control cells. The procedure:
Immunoblot analysis was performed on total cell lysates for ROCK2 and GAPDH expression. In FIG. 8B, TC-71 control and TC-CD99-shRNA #2 cells were treated with either drug at indicated concentrations for 1, 3 and 6 h. Immunoblot analysis was performed on total cell lysates for ROCK2 and GAPDH expression. In FIG. 8C, cell migration experiments were performed using Boyden chamber transwell migration assay with 10% serum serving as the chemoattractant in the lower chamber. […] The number of migrated cells was then quantified by counting the cells in the bottom chamber under the microscope. Asterisks indicate statistically significant differences between treatments (*p<0.05; vs. control using a Student's unpaired t test). […]
(In general: A western blot detects proteins with antibodies after separation by electrophoresis.)

For orientation: Kd means a measure of binding affinity in units of concentration. As for `Nc1nc(Cl)nc2c1ncn2[C@H]1C[C@H](O)[C@@H](CO)O1` [cladribine], in experiment [1], the Kd was found to be 3.8 ± 3.3 µM. Besides, the IC50 in experiment [2] is below 1 µM; in experiment [3], 1.09 ± 1.85 µM; in experiment [4] it was above 30 µM; in experiment [5] it was above 30 µM; in experiment [6] it was above 30 µM. Besides, the “IC50 concentrations, ES cell lines” value in experiment [3] is given as “submicromolar”. Further, the “increased sensitivity of ES compared to non-ES cell lines” value in experiment [3] was found to be 18 fold. For the same compound, the ROCK2 expression entry in experiment [7] is “notable decrease”.

For `Nc1nc(Cl)nc2c1ncn2[C@@H]1O[C@H](CO)[C@@H](O)[C@@H]1F` [clofarabine], in experiment [1], the Kd came to 5.3 ± 3.2 µM. For the same compound, the IC50 in experiment [2] was below 1 µM; in experiment [3] it was 0.44 ± 0.44 µM; in experiment [4], above 10 µM; in experiment [5], above 10 µM; in experiment [6], above 10 µM. The “IC50 concentrations, ES cell lines” value in experiment [3] is listed as “submicromolar”. Besides, in experiment [3], the “increased sensitivity of ES compared to non-ES cell lines” value is listed as 31 fold. Also, the ROCK2 expression result in experiment [7] was “notable decrease”.

(Values after US11202792B2, “CD99 inhibitors and their uses” (GEORGETOWN UNIVERSITY, priority 2016, dated 2021).)
